One assay deals with T1, CCR5 (Homo sapiens, UniProt P51681).
T1 construct: After 21 to 34 days culture, the membranes were prepared from the cells; endogenous in cells; host or cells: Allo-T cells (allo-reactive T cell line from human PBMCs), membrane preparation
The experiment in a line: Displacement of radio-labelled CCR5 antagonist from Allo-T cell membranes (inhibition of MIP-1β binding). The conditions noted are these: membranes of human allo-reactive T cells; 2 nM [3H] CCR5 antagonist; 2 hours at room temperature; read-out: IC50, concentration which displaced 50% of bound radio-labelled CCR5 antagonist. The protocol:
The ability of the compound of the present invention to inhibit the binding of MIP-1β (CCL-4) was measured:
An allo-reactive T cell line was generated by exposure of human peripheral blood mononuclear cells (PBMCs) to L-DR4/B7 fibroblasts (immobilised with glutaraldehyde fixation and irradiation) and subsequent expansion with anti-CD3 and IL-2 for 14 days. The resultant Allo-T cells were frozen. When required, the cells were grown and re-challenged with irradiated HLA-DR4+ve PBMCs and expanded with anti-CD3 and IL-2. After 21 to 34 days culture, the membranes were prepared from the cells. These membranes were incubated in 96-well plates with 2 nM of the radio-labelled CCR5 antagonist [^3H]1-{(3R)-3-(3,5-difluorophenyl)-3-[4-(methylsulfonyl)phenyl]propyl}-4-(2-{[4-(methylsulfonyl)phenyl]sulfonyl}ethyl)piperidine and various concentrations of the compound of the invention for 2 hours at room temperature. The plates were then harvested onto GF/B filter plates (which had been pre-soaked soaked in 0.3% PEI containing 0.2% BSA for 10 min at 4° C.) using a Packard Unifilter harvester using 10 wash steps. The amount of [^3H]1-{(3R)-3-(3,5-difluorophenyl)-3-[4-(methylsulfonyl)phenyl]propyl}-4-(2-{[4-(methylsulfonyl)phenyl]sulfonyl}ethyl)piperidine retained on the filter plates was determined by scintillation counting. […]

For assay [1], the system named is T-cells, chemotaxis in response to MIP-1β (CCL-4). Description: Inhibition of chemotaxis of T-cells in response to MIP-1β (CCL-4). The format is cell-based. Conditions: human allo-reactive T cell line; 1 nM MIP-1β; 1 hour at 37° C.; read-out: IC50, concentration which inhibited 50% of the chemotactic response. The method, then: The ability of the compound of the present invention to inhibit the chemotaxis of T-cells in response to MIP-1β (CCL-4) was measured:
An allo-reactive T cell line was generated by exposure of human peripheral blood mononuclear cells (PBMCs) to L-DR4/B7 fibroblasts (immobilised with glutaraldehyde fixation and irradiation) and subsequent expansion with IL-2 and anti-CD3. When required, the cells were grown and re-challenged with irradiated HLA-DR4+ve PBMCs and expanded with anti-CD3 and IL-2. The cells were used between day 21 and 34. 1 nM of MIP-1β plus varying concentrations of the CCR5 antagonist [^3H]1-{(3R)-3-(3,5-difluorophenyl)-3-[4-(methylsulfonyl)phenyl]propyl}-4-(2-{[4-(methylsulfonyl)phenyl]sulfonyl}ethyl)piperidine were placed in assay buffer in the bottom of a 96-well Neuroprobe Chemo TX chemotaxis plate and cells that had been loaded with a fluorescent dye and pre-incubated with varying concentration of the CCR5 antagonist were pipetted onto the surface of a 5 micron pore size membrane according to the manufacturers specifications. After 1 hour of incubation with the compound of the invention at 37° C., the unmigrated cells were washed off the surface of the plate with PBS and the […] by reading on a 96-well fluorescent plate reader. […]

T1 sequence (P51681 whole entry): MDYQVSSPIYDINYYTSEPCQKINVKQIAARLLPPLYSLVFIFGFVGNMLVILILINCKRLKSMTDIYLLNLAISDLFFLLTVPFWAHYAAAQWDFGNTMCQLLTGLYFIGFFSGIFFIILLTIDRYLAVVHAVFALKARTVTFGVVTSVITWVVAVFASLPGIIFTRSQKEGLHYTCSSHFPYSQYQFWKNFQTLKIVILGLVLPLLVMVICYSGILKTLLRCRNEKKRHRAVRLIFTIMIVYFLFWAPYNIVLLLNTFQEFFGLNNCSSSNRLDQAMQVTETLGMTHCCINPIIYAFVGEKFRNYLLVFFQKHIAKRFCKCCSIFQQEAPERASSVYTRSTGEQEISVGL

For the compound `Cc1nnc(C(F)(F)F)n1C1CCN(CC[C@@H](c2cc(F)cc(F)c2)C2CCN(S(C)(=O)=O)CC2)CC1` [Comparator Compound A, 1-{(3R)-3-(3,5-difluorophenyl)-3-[1-(methylsulfonyl)piperidin-4-yl]propyl}-4-[3-methyl-5-(trifluoromethyl)-4H-1,2,4-triazol-4-yl]piperidine], the IC50 is 39 nM on CCR5 and 68 nM in assay [1].

Regarding `Cc1nnc(C(C)(F)F)n1C1CCN([C@H](C)C[C@@H](c2cc(F)cc(F)c2)C2CCN(S(C)(=O)=O)CC2)CC1` (single isomer, unassigned), the IC50 on CCR5 is 3.4 nM; in assay [1], 2.1 nM.

Values taken from patent US20080139612A1, “Chemical Compound” (ASTRAZENECA AB, priority 2006, published 2008).
